System: human Peripheral Blood Mononuclear Cell (PMBC)
Assay: PBMC Assay, cytokine stimulation (IFNα)
Assay type: cell-based
Settings: concentration at which the compound stimulated maximum IFN α production, 24 hours, read-out: IFN ECmax values
Protocol: Assays were conducted to determine cytokine stimulation at 24 hours from human Peripheral Blood Mononuclear Cell (PMBC) using the compounds of the present invention. The assays were run in duplicate, with 8-point, half-log dilution curves. The compounds of the present invention were diluted from […] DMSO solution. Cell supernatants are assayed directly for IFNα and 1:10 dilution for TNFα. The assays were performed in a similar fashion as described in Bioorg. Med. Chem. Lett. 16, 4559, (2006). Specifically, cryo-preserved PBMCs were thawed and seeded 96 well plates with 750,000 cells/well in 190 μL/well cell media. The PBMCs were then incubated for 1 hour at 37° C. at 5% CO2. Then, the compounds of the present invention were added in 10 μL cell media at 8 point, half-log dilution titration. The plates were incubated at 37° C. and 5% CO2 for 24 hours and then spinned at 1200 rpm for 10 min, which was followed by collecting supernatant and storing the same at −80° C. Cytokine secretion was assayed with Luminex and Upstate multi-plex kits, using a Luminex analysis instrument. IFN ECmax value for a compound was the concentration at which the compound stimulated maximum IFN α production as determined using the assay method above.

| SMILES | EC (max) |
| --- | --- |
| COCCOc1nc(N)c2nc(O)n(Cc3cccc(CN4CCN(C)CC4)c3)c2n1 [Example C, 6-Amino-2-(2-methoxy-ethoxy)-9-[3-(4-methyl-piperazin-1-ylmethyl)-benzyl]-9H-purin-8-ol] | < 0.005 µM |
| COCCOc1nc(N)c2nc(O)n(Cc3cccc(CNCC4CCCCC4)c3)c2n1 [Example AZ] | < 0.005 µM |
| COCCOc1nc(N)c2nc(O)n(Cc3cccc(CN4CCC4)c3)c2n1 [Example N, 9-(3-(azetidin-1-ylmethyl)benzyl)-6-amino-2-(2-methoxyethoxy)-9H-purin-8-ol] | < 0.005 µM |
| COCCOc1nc(N)c2nc(O)n(Cc3cccc(CNCC4CC4)c3)c2n1 [Example D, 6-Amino-9-{3-[(cyclopropylmethyl-amino)-methyl]-benzyl}-2-(2-methoxy-ethoxy)-9H-purin-8-ol] | < 0.005 µM |
| Nc1nc(OCCC2CC2)nc2c1nc(O)n2Cc1cccc(CN2CCCC2)c1 [Example AU] | < 0.005 µM |
| Nc1nc(OCCC(F)(F)F)nc2c1nc(O)n2Cc1cccc(CN2CCCC2)c1 [Example BH] | < 0.005 µM |
| COCCOc1nc(N)c2nc(O)n(Cc3cccc(CN4CCCCC4)c3)c2n1 [Example J, 6-Amino-2-(2-methoxy-ethoxy)-9-(3-piperidin-1-ylmethyl-benzyl)-9H-purin-8-ol] | < 0.005 µM |
| COCCOc1nc(N)c2nc(O)n(Cc3cccc(CN4CC(C)CC(C)C4)c3)c2n1 (stereo not shown) [Example F, 6-Amino-9-[3-(3,5-dimethyl-piperidin-1-ylmethyl)-benzyl]-2-(2-methoxy-ethoxy)-9H-purin-8-ol] | < 0.005 µM |
| COCCOc1nc(N)c2nc(OC(=O)OC(C)C)n(Cc3cccc(CN4CCCC4)c3)c2n1 [Example R, 9-(3-(pyrrolidin-1-ylmethyl)benzyl)-6-amino-2-(2-methoxyethoxy)-9H-purin-8-yl isopropyl carbonate] | < 0.005 µM |
| COCCOc1nc(N)c2nc(O)n(Cc3cc(CN4CCCCC4)cc(C(F)(F)F)c3)c2n1 [Example AS] | < 0.005 µM |
| Nc1nc(OC2CCCC2)nc2c1nc(O)n2Cc1cccc(CN2CCCC2)c1 [Example BM] | < 0.005 µM |
| COCCOc1nc(N)c2nc(O)n(Cc3cccc(CN4CCCC4)c3)c2n1 [Example A, 6-Amino-2-(2-methoxy-ethoxy)-9-(3-pyrrolidin-1-ylmethyl-benzyl)-9H-purin-8-ol] | < 0.005 µM |
| Nc1nc(OCC2CCC2)nc2c1nc(O)n2Cc1cccc(CN2CCCC2)c1 [Example AV] | < 0.005 µM |
| CCCCOc1nc(N)c2nc(O)n(Cc3cccc(CN4CCC4)c3)c2n1 [Example BE] | < 0.005 µM |
| Nc1nc(OCC2CC2)nc2c1nc(O)n2Cc1cccc(CN2CCCC2)c1 [Example AW] | < 0.005 µM |
| COCCOc1nc(N)c2nc(O)n(Cc3cc(CN4CCCC4)cc(C(F)(F)F)c3)c2n1 [Example AQ] | < 0.005 µM |

From patent publication US9611268B2, “Modulators of toll-like receptor 7” (Gilead Sciences, Inc., priority 2007, dated 2017)
